From PubChem BioAssay (NCI)
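Tested at 5 concentrations; 48 h exposure; 96-well plates; endpoints linearly interpolated, else capped at highest concentration. TGI is the concentration that stops growth completely.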

Experiments:
Assay in all cases: inhibition of tumour cell growth, NCI panel, 48 h
UACC-257 melanoma = tested on: UACC-257 melanoma
MDA-MB-231 breast = tested on: MDA-MB-231 breast
SNB-19 CNS = tested on: SNB-19 CNS
HOP-62 NSCLC = tested on: HOP-62 NSCLC
786-0 renal = tested on: 786-0 renal
MDA-N = tested on: MDA-N
SF-539 CNS = tested on: SF-539 CNS
OVCAR-8 ovarian = tested on: OVCAR-8 ovarian
EKVX NSCLC = tested on: EKVX NSCLC
UACC-62 melanoma = tested on: UACC-62 melanoma
HT29 colon = tested on: HT29 colon
SK-MEL-2 melanoma = tested on: SK-MEL-2 melanoma
MCF7 breast = tested on: MCF7 breast
OVCAR-3 ovarian = tested on: OVCAR-3 ovarian
MALME-3M melanoma = tested on: MALME-3M melanoma
U251 CNS = tested on: U251 CNS
MDA-MB-435 = tested on: MDA-MB-435
OVCAR-4 ovarian = tested on: OVCAR-4 ovarian
SK-MEL-28 melanoma = tested on: SK-MEL-28 melanoma
SR leukemia = tested on: SR leukemia
NCI-H460 lung = tested on: NCI-H460 lung
NCI-H522 lung = tested on: NCI-H522 lung
TK-10 renal = tested on: TK-10 renal
SK-MEL-5 melanoma = tested on: SK-MEL-5 melanoma
LOX IMVI melanoma = tested on: LOX IMVI melanoma
SN12C renal = tested on: SN12C renal
M14 melanoma = tested on: M14 melanoma
HCC-2998 colon = tested on: HCC-2998 colon
OVCAR-5 ovarian = tested on: OVCAR-5 ovarian
HS 578T breast = tested on: HS 578T breast
NCI-H23 lung = tested on: NCI-H23 lung
KM12 colon = tested on: KM12 colon
HL-60(TB) leukemia = tested on: HL-60(TB) leukemia
COLO 205 colon = tested on: COLO 205 colon
CAKI-1 renal = tested on: CAKI-1 renal
K-562 leukemia = tested on: K-562 leukemia
HOP-92 NSCLC = tested on: HOP-92 NSCLC
NCI-H226 lung = tested on: NCI-H226 lung
A549 NSCLC = tested on: A549 NSCLC
T-47D breast = tested on: T-47D breast
BT-549 breast = tested on: BT-549 breast
SK-OV-3 ovarian = tested on: SK-OV-3 ovarian
PC-3 prostate = tested on: PC-3 prostate
SF-295 CNS = tested on: SF-295 CNS
NCI/ADR-RES ovarian = tested on: NCI/ADR-RES ovarian
SNB-75 CNS = tested on: SNB-75 CNS
RPMI-8226 leukemia = tested on: RPMI-8226 leukemia
SF-268 CNS = tested on: SF-268 CNS
RXF 393 renal = tested on: RXF 393 renal
HCT-116 colon = tested on: HCT-116 colon
HCT-15 colon = tested on: HCT-15 colon
CCRF-CEM leukemia = tested on: CCRF-CEM leukemia
SW-620 colon = tested on: SW-620 colon
UO-31 renal = tested on: UO-31 renal
DU-145 prostate = tested on: DU-145 prostate
ACHN renal = tested on: ACHN renal
MOLT-4 leukemia = tested on: MOLT-4 leukemia
IGROV1 ovarian = tested on: IGROV1 ovarian
A498 renal = tested on: A498 renal

Measured: TGI

CC(=O)NCCc1c[nH]c2ccc(Cl)cc12
> 100 µM: UACC-257 melanoma | MDA-MB-231 breast | SNB-19 CNS | HOP-62 NSCLC | 786-0 renal | MDA-N | SF-539 CNS | OVCAR-8 ovarian | EKVX NSCLC | UACC-62 melanoma | HT29 colon | SK-MEL-2 melanoma | MCF7 breast | OVCAR-3 ovarian | MALME-3M melanoma | U251 CNS | MDA-MB-435 | OVCAR-4 ovarian | SK-MEL-28 melanoma | SR leukemia | NCI-H460 lung | NCI-H522 lung | TK-10 renal | SK-MEL-5 melanoma | LOX IMVI melanoma | SN12C renal | M14 melanoma | HCC-2998 colon | OVCAR-5 ovarian | HS 578T breast | NCI-H23 lung | KM12 colon | HL-60(TB) leukemia | COLO 205 colon | CAKI-1 renal | K-562 leukemia | HOP-92 NSCLC | NCI-H226 lung | A549 NSCLC | T-47D breast | BT-549 breast | SK-OV-3 ovarian | PC-3 prostate | SF-295 CNS | NCI/ADR-RES ovarian | SNB-75 CNS | RPMI-8226 leukemia | SF-268 CNS | RXF 393 renal | HCT-116 colon | HCT-15 colon | CCRF-CEM leukemia | SW-620 colon | UO-31 renal | DU-145 prostate | ACHN renal | MOLT-4 leukemia | IGROV1 ovarian

CCn1c(=O)ccc2ccc(N(CCO)CCO)nc21
> 100 µM: UACC-257 melanoma | MDA-MB-231 breast | SNB-19 CNS | HOP-62 NSCLC | 786-0 renal | MDA-N | OVCAR-8 ovarian | EKVX NSCLC | UACC-62 melanoma | HT29 colon | SK-MEL-2 melanoma | MCF7 breast | OVCAR-3 ovarian | MALME-3M melanoma | U251 CNS | MDA-MB-435 | OVCAR-4 ovarian | SK-MEL-28 melanoma | SR leukemia | NCI-H460 lung | NCI-H522 lung | TK-10 renal | SK-MEL-5 melanoma | SN12C renal | M14 melanoma | HCC-2998 colon | OVCAR-5 ovarian | HS 578T breast | NCI-H23 lung | KM12 colon | COLO 205 colon | CAKI-1 renal | K-562 leukemia | NCI-H226 lung | A549 NSCLC | A498 renal | T-47D breast | BT-549 breast | SK-OV-3 ovarian | PC-3 prostate | SF-295 CNS | NCI/ADR-RES ovarian | SNB-75 CNS | RPMI-8226 leukemia | SF-268 CNS | RXF 393 renal | HCT-116 colon | HCT-15 colon | CCRF-CEM leukemia | SW-620 colon | UO-31 renal | DU-145 prostate | ACHN renal | MOLT-4 leukemia | IGROV1 ovarian

O=C(O)CCCCn1cnc2c(=S)nc[nH]c21
> 100 µM: UACC-257 melanoma | MDA-MB-231 breast | SNB-19 CNS | HOP-62 NSCLC | 786-0 renal | MDA-N | SF-539 CNS | OVCAR-8 ovarian | EKVX NSCLC | UACC-62 melanoma | HT29 colon | SK-MEL-2 melanoma | MCF7 breast | OVCAR-3 ovarian | MALME-3M melanoma | U251 CNS | MDA-MB-435 | OVCAR-4 ovarian | SK-MEL-28 melanoma | SR leukemia | NCI-H460 lung | NCI-H522 lung | TK-10 renal | SK-MEL-5 melanoma | LOX IMVI melanoma | SN12C renal | M14 melanoma | HCC-2998 colon | OVCAR-5 ovarian | HS 578T breast | NCI-H23 lung | KM12 colon | COLO 205 colon | CAKI-1 renal | K-562 leukemia | HOP-92 NSCLC | NCI-H226 lung | A549 NSCLC | A498 renal | T-47D breast | BT-549 breast | SK-OV-3 ovarian | PC-3 prostate | SF-295 CNS | NCI/ADR-RES ovarian | SNB-75 CNS | RPMI-8226 leukemia | SF-268 CNS | RXF 393 renal | HCT-116 colon | HCT-15 colon | CCRF-CEM leukemia | SW-620 colon | UO-31 renal | DU-145 prostate | ACHN renal | MOLT-4 leukemia | IGROV1 ovarian
